Values of other authors, collected in patent publication US9949970B2, “Synthesis of new benzothiazole derivatives as potential anti-tubercular agents” (priority 2010, dated 2018).
In brackets after ≈: the same amount, converted by molar mass.

System: M. tuberculosis H37Rv
Conditions: closest benzothiazole compounds; cited from earlier work

COC(=O)[C@H](NC(=O)c1cc(COc2ccc3nc(C)sc3c2)on1)c1ccccc1
MIC: 1.9 µg/mL (≈ 4.34 µM)

Clc1ccccc1/C=N/c1nc2ccccc2s1
MIC: 73 µg/mL (≈ 268 µM)

COC(=O)C(NC(=O)c1cc(COc2ccc3nc(C)sc3c2)on1)c1ccccc1 (stereo not drawn)
MIC: 1.4 µg/mL (≈ 3.2 µM)
